Columns and labels:
Type in all cases: physicochemical
[1] = Hygroscopicity / stable existence of the obtained salt solid; settings: concluding statement
Protocol: With reference to the preparation method of Example 1, the preparation of alkaline amino acid salts: lysine salt, arginine salt, and proline salt of the compound of formula A was carried out using methanol as the reaction solvent.

Solubility test in water = settings: for solubility: thermodynamic from solid, in purified water, saturated state
Protocol: The salts obtained in Example 1, Comparative examples 1, 2 and 6, and the compound of formula A were tested for solubility in water, and the test method was as follows:
Test method: the samples to be tested were taken in a certain amount, gradually added to the purified water respectively, and continuously shaked until the samples reached the saturated state, the weighed amount of the samples to be tested and the used amount of the solvent were recorded, the concentrations at which the samples were dissolved were calculated, and the test results were shown in the following table: […]

[2] = Stability test, accelerated test at 40° C.±2° C./75% RH±5% RH; settings: for Content (%) / Maximum single impurity (%) / Moisture (%) / Total impurity (%): 40° C.±2° C./75% RH±5% RH
Protocol: The sodium salt of the compound of formula A obtained in Example 1 (packaging conditions: low-density polyethylene bag+polyester/aluminum/polyethylene composite bag for pharmaceutical packaging) was subjected to an accelerated test at 40° C.±2° C./75% RH±5% RH, and the results were as follows: […]

O=C([O-])Cc1nn(Cc2nc3cc(C(F)(F)F)ccc3s2)c(=O)c2nccnc12.[Na+] [Example 1]
hygroscopicity (in words) [1]: low hygroscopicity
solubility (Solubility test in water): 10000 µg/mL
solubility in water (in words) (Solubility test in water): good solubility
Content (%) ([2]; 0 Month): 100.8%
Maximum single impurity (%) ([2]; 0 Month): 0.03%
Moisture (%) ([2]; 0 Month): 0.6%
Total impurity (%) ([2]; 0 Month): 0.40%
Content (%) ([2]; 1 Month): 99.6%
Maximum single impurity (%) ([2]; 1 Month): 0.03%
Moisture (%) ([2]; 1 Month): 0.7%
Total impurity (%) ([2]; 1 Month): 0.45%
Content (%) ([2]; 2 Month): 99.9%
Maximum single impurity (%) ([2]; 2 Month): 0.03%
Moisture (%) ([2]; 2 Month): 0.7%
Total impurity (%) ([2]; 2 Month): 0.37%
Content (%) ([2]; 3 Month): 99.6%
Maximum single impurity (%) ([2]; 3 Month): 0.03%
Moisture (%) ([2]; 3 Month): 0.8%
Total impurity (%) ([2]; 3 Month): 0.42%
Content (%) ([2]; 6 Month): 100.9%
Maximum single impurity (%) ([2]; 6 Month): 0.03%
Moisture (%) ([2]; 6 Month): 0.8%
Total impurity (%) ([2]; 6 Month): 0.54%
quality stability (in words) ([2]; concluding statement): stable quality

O=C(O)Cc1nn(Cc2nc3cc(C(F)(F)F)ccc3s2)c(=O)c2nccnc12 [Compound of formula A, reference compound]
solubility (Solubility test in water): 35 µg/mL
solubility in water (in words) (Solubility test in water): insoluble in water

Source: patent US12195471B2, “Salt of aldose reductase inhibitor, and preparation method and application thereof” (CSPC ZHONGQI PHARMACEUTICAL TECHNOLOGY (SHIJIAZHUANG) CO., …, priority 2019, dated 2025)
